According to patent EP0326329B1, “Quinazoline derivatives useful as insecticides” (Dow AgroSciences LLC, priority 1988, dated 1989):

Assays:
Assay type in all cases: in vivo
[1] = tested on: Cercospora beticola (leaf spot); test: Greenhouse Test 1, foliar spray fungicide screen (LEAF SPOT), host sugar beet; details: disease control rating, 400 ppm (+++ at 100 ppm)
[2] = tested on: Pseudocercosporella herpotrichoides; test: Fungicide field tests; details: crop: wheat
From the text: (§1) Selected compounds were field tested on various crops against a variety of pathogens. […]

[3] = tested on: Erysiphe sp.; test: Fungicide field tests; details: crop: sugar beet
From the text: as §1

[4] = tested on: Sphaerotheca fuliginea; test: Fungicide field tests; details: crop: cucumber
From the text: as §1

[5] = tested on: Erysiphe graminis hordei; test: Fungicide field tests; details: crop: barley
From the text: as §1

[6] = tested on: Pyrenophora teres; test: Fungicide field tests; details: crop: barley
From the text: as §1

[7] = tested on: Erysiphe graminis tritici; test: Fungicide field tests; details: crop: wheat
From the text: as §1

[8] = tested on: Plasmopara viticola; test: Fungicide field tests; details: crop: grape
From the text: as §1

[9] = tested on: Rhynchosporium secalis; test: Fungicide field tests; details: crop: barley
From the text: as §1

[10] = tested on: melon aphids (Aphis gossypii Glover); test: Mite/insect screen, sprayed squash cotyledons (MA); details: Aphis gossypii, read-out: MA RESULTS %
In short: (§2)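 Water-diluted formulations of each compound (acetone/alcohol 50:50 with 23 g/L and 13 g/L emulsifier blends) are sprayed over both leaf faces to runoff. After a standard exposure period, percent kill and phytotoxicity are recorded.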

[11] = tested on: Venturia inaequalis (apple scab); test: Greenhouse Test 1, foliar spray fungicide screen (APPL SCAB), host apple seedling; details: disease control rating, 400 ppm (+++ at 100 ppm)
[12] = tested on: southern armyworm (Spodopetra eridania Cramer); test: Mite/insect screen, sprayed squash leaves (SAW); details: Spodoptera eridania, read-out: SAW RESULTS %
In short: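 Mortality and phytotoxicity read after standard exposure periods on sprayed squash: cotyledons for melon aphids and twospotted spider mites, excised leaves placed with southern armyworm larvae. Spray solutions were water dilutions of acetone/alcohol stocks containing TOXIMUL R and S emulsifiers, applied to runoff at 10 psi and air-dried one hour.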

[13] = tested on: Pseudoperonospora cubensis (downy mildew); test: Greenhouse Test 1, foliar spray fungicide screen (DOWN MDEW), host squash; details: disease control rating, 400 ppm (+++ at 100 ppm)
[14] = tested on: Puccinia recondita tritici (leaf rust); test: Greenhouse Test 1, foliar spray fungicide screen (LEAF RUST), host wheat; details: disease control rating, 400 ppm (+++ at 100 ppm)
[15] = tested on: Twospotted spider mites (Tetranychus urticae Koch); test: Mite/insect screen, sprayed squash cotyledons (SM); details: Tetranychus urticae, read-out: SM RESULTS %
In short: as §2

[16] = tested on: Botrytis cinerea (gray mold); test: Greenhouse Test 1, foliar spray fungicide screen (GRAY MOLD), host grape berries; details: disease control rating, 400 ppm (+++ at 100 ppm)
[17] = tested on: Erysiphe graminis tritici (powdery mildew); test: Greenhouse Test 1, foliar spray fungicide screen (POWD MDEW), host wheat; details: disease control rating, 400 ppm (+++ at 100 ppm)
[18] = tested on: Southern corn rootworm (Diabrotica undecimpuctata howardi Barber); test: Mite/insect screen, soil treatment (CRW); details: Diabrotica, soil, read-out: CRW RESULTS %
In short: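 Five 2–3 instar larvae were placed on dry sandy soil with a presoaked corn seed after the soil had received 1 mL of compound solution and dried 6–12 h; cups were kept capped at 23°C. Mortality (%) and phytotoxicity were read after standard exposure. Formulation: acetone/alcohol with emulsifiers, water-diluted.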

[19] = tested on: Pyricularia oryzae (rice blast); details: disease control rating, foliar spray, host rice; 400 ppm (+++ at 100 ppm)
[20] = tested on: Septoria tritici (leaf blotch); test: Greenhouse Test 1, foliar spray fungicide screen (LEAF BLOT), host wheat; details: disease control rating, 400 ppm (+++ at 100 ppm)
[21] = tested on: green cloverworm; test: Mite and insect field trials; details: plant: alfalfa (Lucerne)
Procedure: (§3) 4-[2-[4-(t-butyl)phenyl]ethoxy]quinazoline and 4-[2-(1,1'-biphenyl)-4 biphenyl)-4-ylethoxy]quinazoline were evaluated against a variety of mite and insect species in field trials.

[22] = tested on: apple aphid; test: Mite and insect field trials; details: plant: apples
Procedure: as §3

[23] = tested on: European red mite; test: Mite and insect field trials; details: plant: apples
Procedure: as §3

[24] = tested on: potato leafhopper; test: Mite and insect field trials; details: plant: alfalfa (Lucerne)
Procedure: as §3

[25] = tested on: Dawson-hop aphid; test: Mite and insect field trials; details: plant: hops
Procedure: as §3

[26] = tested on: citrus rust mite; test: Mite and insect field trials; details: tested on grapefruit
Procedure: as §3

[27] = tested on: thrips; test: Mite and insect field trials; details: plant: privet
Procedure: as §3

[28] = tested on: pea aphid; test: Mite and insect field trials
Procedure: as §3

[29] = tested on: twospotted spider mite; test: Mite and insect field trials
Procedure: as §3

[30] = tested on: cereal aphid; test: Mite and insect field trials; details: plant: barley
Procedure: as §3

[31] = tested on: tarnished plant bug; test: Mite and insect field trials; details: plant: alfalfa (Lucerne)
Procedure: as §3

[32] = tested on: bean aphid; test: Mite and insect field trials; details: plant: bean, faba broad
Procedure: as §3

[33] = tested on: black citrus aphid; test: Mite and insect field trials; details: plant: lemon
Procedure: as §3

[34] = tested on: rosy apple aphid; test: Mite and insect field trials; details: plant: apples
Procedure: as §3

[35] = tested on: green peach aphid; test: Mite and insect field trials
Procedure: as §3

[36] = tested on: wheat aphid; test: Mite and insect field trials; details: plant: wheat
Procedure: as §3

[37] = tested on: grape thrips; test: Mite and insect field trials; details: plant: grape (European)
Procedure: as §3

[38] = tested on: white apple leafhopper; test: Mite and insect field trials; details: plant: apples
Procedure: as §3

[39] = tested on: grape leafhopper; test: Mite and insect field trials; details: plant: grape (European)
Procedure: as §3

[40] = tested on: potato aphid; test: Mite and insect field trials; details: plant: turnip
Procedure: as §3

[41] = tested on: greenhouse thrips; test: Mite and insect field trials; details: plant: azaleas
Procedure: as §3

[42] = tested on: yellow hickory aphid; test: Mite and insect field trials; details: plant: pecan nut
Procedure: as §3

[43] = tested on: cotton aphid; test: Mite and insect field trials; details: plant: cotton
Procedure: as §3

[44] = tested on: apple rust mite; test: Mite and insect field trials; details: plant: apples
Procedure: as §3

What does the source list for `CC(C)(C)c1ccc(CCOc2ncnc3ccccc23)cc1` [Example 2, 4-[2-[4-(t-butyl)phenyl]ethoxy]quinazoline]?
LEAF SPOT [1]: ++ (++ = 90-100% control at 400 ppm); pathogen against which compound demonstrated activity in field tests [2]: Pseudocercosporella herpotrichoides; pathogen against which compound demonstrated activity in field tests [3]: Erysiphe sp.; pathogen against which compound demonstrated activity in field tests [4]: Sphaerotheca fuliginea; pathogen against which compound demonstrated activity in field tests [5]: Erysiphe graminis hordei; pathogen against which compound demonstrated activity in field tests [6]: Pyrenophora teres; pathogen against which compound demonstrated activity in field tests [7]: Erysiphe graminis tritici; pathogen against which compound demonstrated activity in field tests [8]: Plasmopara viticola; pathogen against which compound demonstrated activity in field tests [9]: Rhynchosporium secalis; mortality at 200 ppm [10]: 90%; mortality at 400 ppm [10]: 80%; APPL SCAB [11]: + (+ = 20-89% control at 400 ppm); mortality at 200 ppm [12]: 0%; mortality at 400 ppm [12]: 20%; DOWN MDEW [13]: +++ (+++ = 90-100% control at 100 ppm); LEAF RUST [14]: +++ (+++ = 90-100% control at 100 ppm); mortality at 200 ppm [15]: 100%; mortality at 400 ppm [15]: 90%; GRAY MOLD [16]: - (- = 0-19% control at 400 ppm); POWD MDEW [17]: ++ (++ = 90-100% control at 400 ppm); mortality at 12 ppm [18]: 0%; mortality at 24 ppm [18]: 0%; RICE BLAST [19]: +++ (+++ = 90-100% control at 100 ppm); LEAF BLOT [20]: + (+ = 20-89% control at 400 ppm); mite or insect species against which they showed activity in field trials [21]: green cloverworm; mite or insect species against which they showed activity in field trials [22]: apple aphid; mite or insect species against which they showed activity in field trials [23]: European red mite; mite or insect species against which they showed activity in field trials [24]: potato leafhopper; mite or insect species against which they showed activity in field trials [25]: Dawson-hop aphid; activity against citrus rust mite in field trials [26]: showing activity; mite or insect species against which they showed activity in field trials [27]: thrips; mite or insect species against which they showed activity in field trials ([28]; plant: alfalfa (Lucerne)): pea aphid; mite or insect species against which they showed activity in field trials ([28]; plant: pea, garden (English)): pea aphid; mite or insect species against which they showed activity in field trials ([29]; plant: azaleas): twospotted spider mite; mite or insect species against which they showed activity in field trials ([29]; plant: broccoli): twospotted spider mite; mite or insect species against which they showed activity in field trials ([29]; plant: plum (Japanese)): twospotted spider mite; mite or insect species against which they showed activity in field trials [30]: cereal aphid; mite or insect species against which they showed activity in field trials [31]: tarnished plant bug; mite or insect species against which they showed activity in field trials [32]: bean aphid; mite or insect species against which they showed activity in field trials [33]: black citrus aphid; mite or insect species against which they showed activity in field trials [34]: rosy apple aphid; mite or insect species against which they showed activity in field trials ([35]; plant: apples): green peach aphid; mite or insect species against which they showed activity in field trials ([35]; plant: sugar beet): green peach aphid; mite or insect species against which they showed activity in field trials [36]: wheat aphid; mite or insect species against which they showed activity in field trials [37]: grape thrips; mite or insect species against which they showed activity in field trials [38]: white apple leafhopper; mite or insect species against which they showed activity in field trials [39]: grape leafhopper; mite or insect species against which they showed activity in field trials [40]: potato aphid; mite or insect species against which they showed activity in field trials [41]: greenhouse thrips; mite or insect species against which they showed activity in field trials [42]: yellow hickory aphid; mite or insect species against which they showed activity in field trials [43]: cotton aphid; mite or insect species against which they showed activity in field trials [44]: apple rust mite
